Assay results as given in US20240336559A1, “ANTI-FUNGALS COMPOUNDS TARGETING THE SYNTHESIS OF FUNGAL SPHINGOLIPIDS” (The Research Foundation for the State University of New York, priority 2021, published 2024).
In brackets after ≈: the same amount, converted by molar mass. Read-outs that look alike come from different tables or passages of the source.

Columns and labels:
C. neoformans = experiment: Antifungal activity assay (MIC80), C. neoformans; assay type: cell-based; details: Cryptococcus neoformans
Procedure: (§1) MICs were determined following the methods of the Clinical and Laboratory Standards Institutes (CLSI) with modifications. Yeast nitrogen base (YNB) medium without amino acid (pH 7.0, 2% glucose) buffered with (4-(2-hydroxyethyl)-1-piperazineethanesulfonic acid) (HEPES) was used for MIC studies in C. neoformans. YNB medium without ammonium sulfate, without amino acid and 1% asparagine (pH 7.0, 2% glucose) was used for MIC studies in Candida strains. RPMI medium (pH 7.0, 2% glucose) was used for MIC studies in A. fumigatus. […] The compounds were serially diluted from 32 to 0.03 μg/mL, in a 96-well plate. The inoculum was prepared as described in the CLSI protocol M27A3 guidelines. The plates were incubated at 37° C. with 5% CO2 for 24 to 72 h and the optical density was measure at 450 nm. The MICs were determined as the lowest concentration of the compound that inhibited 80% of growth compared to the control.
MICs was determined following the methods of the Clinical and Laboratory Standards Institutes (CLSI) with modifications. Yeast Nitrogen Base (YNB) medium (pH 7.0, 0.2% glucose) buffered with HEPES was used for MIC studies. […] The compound was serially diluted from 16 to 0.03 μg/ml, in a 96-well plate. The inoculum was prepared as described in the CLSI protocol M27A3 guidelines. The plates were incubated at 37° C. with 5% CO2 for 24 to 72 h and the optical density was measure at 450 nm. The MICs was determined as the lowest concentration of the compound that inhibited 80% of growth compared to the control.

C. albicans = experiment: Antifungal activity assay (MIC80), C. albicans; assay type: cell-based; details: Candida albicans; lowest concentration inhibiting 80% of growth; YNB pH 7.0, 37° C., 5% CO2, 24 to 72 h
Procedure: as §1

A. fumigatus = experiment: Antifungal activity assay (MIC80), A. fumigatus; assay type: cell-based; details: Aspergillus fumigatus; lowest concentration inhibiting 80% of growth; RPMI pH 7.0, 37° C., 5% CO2, 24 to 72 h
Procedure: as §1

[1] = system: synthesis of sphingolipid GlcCer in C. neoformans; details: in words, 'It was known'; cited from earlier work
[2] = system: C. neoformans, C. albicans, A. fumigatus; experiment: Broad spectrum in vitro antifungal activity; assay type: cell-based; details: in words
Procedure: as §1

[3] = lowest concentration inhibiting 80% of growth, YNB pH 7.0 HEPES, 37° C., 5% CO2, 24 to 72 h, read-out: MIC80 C. neoformans

Row | MIC80 (C. neoformans; [3]) [µg/mL] | MIC80 (C. albicans) [µg/mL] | MIC80 (A. fumigatus) [µg/mL] | melting point [°C] | SMILES | other results
1 | 0.007 (≈ 0.0204 µM) | 2 (≈ 5.83 µM) | 4 (≈ 11.7 µM) |  | C#Cc1cccc(/C=N/NC(=O)c2ccc(Br)cc2)c1O [SB-AF-10-28, 4-Bromo-N′-(3-ethynyl-2-hydroxybenzylidene)benzohydrazide] | 
2 |  |  |  |  | Cc1ccccc1C(=O)N/N=C/c1ccc(O)c(Br)c1 [BHBM] | antifungal activities by inhibiting the synthesis of sphingolipid GlcCer [1]: potent antifungal activities
3 |  |  |  | 175 to 176 | CCCOCc1ccc(C(=O)N/N=C/c2cc(Br)ccc2O)cc1 [SB-AF-44-15, 4-Propoxymethyl-N′-(5-bromo-2-hydroxybenzylidene)benzohydrazide] | 
4 | 0.25 (≈ 0.811 µM) |  |  |  | C#Cc1ccc(O)c(/C=N/NC(=O)c2ccc(COC)cc2)c1 [SB-AF-39-23, 4-Methoxymethyl-N′-(5-ethynyl-2-hydroxybenzylidene)benzohydrazide] | 
5 | 0.03 (≈ 0.0711 µM) | 0.12 (≈ 0.284 µM) | 0.5 (≈ 1.18 µM) |  | C#Cc1ccc(/C=N/NC(=O)c2ccc(Br)cc2Br)c(O)c1 [SB-AF-08-27, 2,4-Dibromo-N′-(4-ethynyl-2-hydroxybenzylidene)benzohydrazide] | in vitro broad-spectrum antifungal activity [2]: excellent in vitro broad-spectrum activity
6 | 0.007 (≈ 0.0204 µM) | 0.06 (≈ 0.175 µM) | 2 (≈ 5.83 µM) |  | C#Cc1ccc(O)c(/C=N/NC(=O)c2ccc(Br)cc2)c1 [SB-AF-10-23, 4-Bromo-N′-(5-ethynyl-2-hydroxybenzylidene) benzohydrazide] | 
7 | ≤ 0.015 | > 16 |  |  | C#Cc1ccc(/C=N/NC(=O)c2ccc(COC(C)C)cc2)c(O)c1 [SB-AF-41-27, N′-(4-Ethynyl-2-hydroxybenzylidene)-4-(isopropoxymethyl)benzohydrazide] | 
8 | 0.06 (≈ 0.142 µM) | 16 (≈ 37.9 µM) | 8 (≈ 19 µM) |  | C#Cc1cccc(O)c1/C=N/NC(=O)c1ccc(Br)c(Br)c1 [SB-AF-13-29, 3,4-Dibromo-N′-(2-ethynyl-6-hydroxybenzylidene)benzohydrazide] | 
9 |  |  |  | 179 to 181 | CC(C)OCc1ccc(C(=O)N/N=C/c2cc(Br)ccc2O)cc1 [SB-AF-41-15, 4-Isopropoxymethyl-N′-(5-bromo-2-hydroxybenzylidene)benzohydrazide] | 
10 | 0.007 (≈ 0.0166 µM) | 8 (≈ 19 µM) | > 16 |  | C#Cc1ccc(/C=N/NC(=O)c2ccc(Br)c(Br)c2)c(O)c1 [SB-AF-13-27, 3,4-Dibromo-N′-(4-ethynyl-2-hydroxybenzylidene)benzohydrazide] | 
11 | 0.03 (≈ 0.0685 µM) | 0.12 (≈ 0.274 µM) | 4 (≈ 9.13 µM) |  | C#Cc1ccc(O)c(/C=N/NC(=O)c2cc(Br)cc(Br)c2O)c1 [SB-AF-12-23, 2-Hydroxy-3,5-dibromo-N-(5-ethynyl-2-hydroxybenzylidene)benzohydrazide] | 
12 | 0.015 (≈ 0.0355 µM) | 4 (≈ 9.48 µM) | 1 (≈ 2.37 µM) |  | C#Cc1cccc(/C=N/NC(=O)c2ccc(Br)c(Br)c2)c1O [SB-AF-13-28, 3,4-Dibromo-N′-(3-ethynyl-2-hydroxybenzylidene)benzohydrazide] | 
13 | 0.06 (≈ 0.142 µM) | 0.5 (≈ 1.18 µM) | 2 (≈ 4.74 µM) |  | C#Cc1ccc(O)c(/C=N/NC(=O)c2ccc(Br)c(Br)c2)c1 [SB-AF-13-23, 3,4-Dibromo-N′-(5-ethynyl-2-hydroxybenzylidene)benzohydrazide] | 
14 |  |  |  | 193 to 195 | CC(C)OCc1ccc(C(=O)N/N=C/c2ccc(Br)cc2O)cc1 [SB-AF-41-13, 4-Isopropoxymethyl-N′-(4-bromo-2-hydroxybenzylidene)benzohydrazide] | 
15 | 4 (≈ 10.9 µM) |  |  |  | C#Cc1ccc(O)c(/C=N/NC(=O)c2ccc(OC(F)(F)F)cc2F)c1 [SB-AF-25-23, 2-Fluoro-4-(trifluoromethoxy)-N-(5-ethynyl-2-hydroxybenzylidene)benzohydrazide] | 
16 | 0.031 (≈ 0.0734 µM) | 0.5 (≈ 1.18 µM) | > 32 |  | C#Cc1cccc(O)c1/C=N/NC(=O)c1ccc(Br)cc1Br [SB-AF-08-29, 2,4-Dibromo-N′-(2-ethynyl-6-hydroxybenzylidene)benzohydrazide] | 

Row | MIC80 (C. neoformans; [3]) [µg/mL] | MIC80 (C. albicans) [µg/mL] | MIC80 (A. fumigatus) [µg/mL] | melting point [°C] | SMILES | other results
17 | 0.25 (≈ 0.743 µM) | > 16 |  |  | C#Cc1ccc(/C=N/NC(=O)c2ccc(COCCC)cc2)c(O)c1 [SB-AF-44-27, N′-(4-Ethynyl-2-hydroxybenzylidene)-4-(propoxymethyl)benzohydrazide] | 
18 |  |  |  | 188 to 189 | COCc1ccc(C(=O)N/N=C/c2cc(Br)ccc2O)cc1 [SB-AF-39-15, 4-Methoxymethyl-N′-(5-bromo-2-hydroxybenzylidene)benzohydrazide] | 
19 | 0.031 (≈ 0.0962 µM) | 8 (≈ 24.8 µM) |  |  | C#Cc1ccc(/C=N/NC(=O)c2ccc(COCC)cc2)c(O)c1 [SB-AF-40-27, 4-(Ethoxymethyl)-N′-(4-ethynyl-2-hydroxybenzylidene)benzohydrazide] | 
20 |  |  |  | 187 to 188 | COCc1ccc(C(=O)N/N=C/c2cccc(Br)c2O)cc1 [SB-AF-39-22, 4-Methoxymethyl-N′-(3-bromo-2-hydroxybenzylidene)benzohydrazide] | 
21 | 0.03 (≈ 0.0685 µM) | 2 (≈ 4.57 µM) | > 16 |  | C#Cc1ccc(/C=N/NC(=O)c2cc(Br)cc(Br)c2O)c(O)c1 [SB-AF-12-27, 3,5-Dibromo-N′-(4-ethynyl-2-hydroxybenzylidene)-2-hydroxybenzohydrazide] | 
22 | 0.03 (≈ 0.0874 µM) | 4 (≈ 11.7 µM) | > 16 |  | C#Cc1ccc(/C=N/NC(=O)c2ccc(Br)cc2)c(O)c1 [SB-AF-10-27, 4-Bromo-N′-(4-ethynyl-2-hydroxybenzylidene)benzohydrazide] | 
23 |  |  |  | 205 to 207 | CCOCc1ccc(C(=O)N/N=C/c2cc(Br)cc(Br)c2O)cc1 [SB-AF-40-17, 4-Ethoxymethyl-N′-(3,5-dibromo-2-hydroxybenzylidene)benzohydrazide] | 
24 |  |  |  | 198 to 199 | COCc1ccc(C(=O)N/N=C/c2ccc(Br)cc2O)cc1 [SB-AF-39-13, 4-Methoxymethyl-N′-(4-bromo-2-hydroxybenzylidene)benzohydrazide] | 
25 |  |  |  | 190 to 192 | CCCOCc1ccc(C(=O)N/N=C/c2cc(Br)cc(Br)c2O)cc1 [SB-AF-44-17, 4-Propoxymethyl-N′-(3,5-dibromo-2-hydroxybenzylidene)benzohydrazide] | 
26 | 0.007 (≈ 0.0188 µM) | 1 (≈ 2.69 µM) | 1 (≈ 2.69 µM) |  | C#Cc1ccc(O)c(/C=N/NC(=O)c2ccc(C3(C(F)(F)F)N=N3)cc2)c1 [SB-AF-43-23, 4-(3-(Trifluoromethyl)-3H-diazirin-3-yl)-N′-(5-ethynyl-2-hydroxybenzylidene) benzohydrazide] | 
27 | 0.007 (≈ 0.0243 µM) | 16 (≈ 55.5 µM) | > 16 |  | C#Cc1ccc(C(=O)N/N=C/c2ccc(C#C)cc2O)cc1 [SB-AF-36-27, 4-Ethynyl-N′-(4-ethynyl-2-hydroxybenzylidene)benzohydrazide] | 
28 |  |  |  | 186 to 187 | CC(C)OCc1ccc(C(=O)N/N=C/c2cc(Br)cc(Br)c2O)cc1 [SB-AF-41-17, 4-Isopropoxymethyl-N′-(3,5-dibromo-2-hydroxybenzylidene)benzohydrazide] | 
29 |  |  |  | 176 to 177 | CCOCc1ccc(C(=O)N/N=C/c2cccc(Br)c2O)cc1 [SB-AF-40-22, 4-Ethoxymethyl-N′-(3-bromo-2-hydroxybenzylidene)benzohydrazide] | 
30 | 0.03 (≈ 0.0711 µM) | ≤ 0.01 | 2 (≈ 4.74 µM) |  | C#Cc1ccc(O)c(/C=N/NC(=O)c2ccc(Br)cc2Br)c1 [SB-AF-08-23, 2,4-Dibromo-N′-(5-ethynyl-2-hydroxybenzylidene)benzohydrazide] | 
31 | 1 (≈ 2.78 µM) | > 16 | > 32 |  | C#Cc1ccc(/C=N/NC(=O)c2ccc(Br)c(O)c2)c(O)c1 [SB-AF-46-27, 4-Bromo-N′-(4-ethynyl-2-hydroxybenzylidene)-3-hydroxybenzohydrazide] | 

Row | SMILES | MIC80 (C. neoformans; [3]) [µg/mL] | MIC80 (C. albicans) [µg/mL] | MIC80 (A. fumigatus) [µg/mL] | melting point [°C] | other results
32 | C#Cc1cccc(O)c1/C=N/NC(=O)c1ccc(Br)cc1 [SB-AF-10-29, 4-Bromo-N-(2-ethynyl-6-hydroxybenzylidene)benzohydrazide] |  | 8 (≈ 23.3 µM) | > 32 |  | MIC80 (C. neoformans; pH 7, read-out: MIC80 C. neoformans): 0.125 µg/mL (≈ 0.364 µM)
